# Results as given in PubChem BioAssay AID256 (DTP/NCI, 2004).
# Several values for one entry are separate records, joined by “and”; a condition that tells them apart may be missing. Identical values can stand only once. Toxic doses and inconclusive results are not listed.
# Test system: CD2F1 mice, L1210 leukemia ip, survival T/C
# Assay: NCI In Vivo Anticancer Drug Screen. Data for tumor model L1210 Leukemia (intraperitoneal) in CD2F1 (CDF1) mice
# Settings: endpoint: mean survival time, higher = longer survival
# Procedure, shortened: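 Mice carrying a transplanted tumor received test compound or vehicle alone. The value is the measurement in the treated group divided by that in the vehicle-treated control group.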
# [1] = dose: 100.0 mg/kg/injection, schedule: Q04DX003 (ip), vehicle: saline
# [2] = dose: 200.0 mg/kg/injection, schedule: Q04DX003 (ip), vehicle: saline
# [3] = dose: 400.0 mg/kg/injection, schedule: Q04DX003 (ip), vehicle: saline
# [4] = dose: 100.0 mg/kg/injection, schedule: Q04DX002 (ip), vehicle: saline
# [5] = dose: 200.0 mg/kg/injection, schedule: Q04DX002 (ip), vehicle: saline
# [6] = dose: 400.0 mg/kg/injection, schedule: Q04DX002 (ip), vehicle: saline
# [7] = dose: 100.0 mg/kg/injection, schedule: Q04DX003 (ip), vehicle: saline with Tween-80
# [8] = dose: 200.0 mg/kg/injection, schedule: Q04DX003 (ip), vehicle: saline with Tween-80
# [9] = dose: 400.0 mg/kg/injection, schedule: Q04DX003 (ip), vehicle: saline with Tween-80
# [10] = dose: 100.0 mg/kg/injection, schedule: Q01DX009 (ip), vehicle: saline with Tween-80
# [11] = dose: 100.0 mg/kg/injection, schedule: Q01DX001 (ip), vehicle: saline
# [12] = dose: 200.0 mg/kg/injection, schedule: Q01DX001 (ip), vehicle: saline
# [13] = dose: 200.0 mg/kg/injection, schedule: Q01DX009 (ip), vehicle: saline with Tween-80
# [14] = dose: 100.0 mg/kg/injection, schedule: Q04DX003 (ip), vehicle: Klucel (hydroxypropylcellulose) (HPC)
# [15] = dose: 200.0 mg/kg/injection, schedule: Q04DX003 (ip), vehicle: Klucel (hydroxypropylcellulose) (HPC)
# [16] = dose: 400.0 mg/kg/injection, schedule: Q04DX003 (ip), vehicle: Klucel (hydroxypropylcellulose) (HPC)
# [17] = dose: 100.0 mg/kg/injection, schedule: Q01DX009 (ip), vehicle: saline
# [18] = dose: 200.0 mg/kg/injection, schedule: Q01DX009 (ip), vehicle: saline
# [19] = dose: 100.0 mg/kg/injection, schedule: Q01DX001 (ip), vehicle: saline with Tween-80
# [20] = dose: 200.0 mg/kg/injection, schedule: Q01DX001 (ip), vehicle: saline with Tween-80
# [21] = dose: 400.0 mg/kg/injection, schedule: Q01DX001 (ip), vehicle: saline with Tween-80
smiles,measurement,setting,value
COc1ccc(C(=O)c2ccc(OC)cc2)cc1,T/C,"dose: 50.0 mg/kg/injection, schedule: Q01DX009 (ip), vehicle: Klucel (hydroxypropylcellulose) (HPC)",100 % of control
same,T/C,"dose: 100.0 mg/kg/injection, schedule: Q01DX009 (ip), vehicle: Klucel (hydroxypropylcellulose) (HPC)",93 % of control
same,T/C,"dose: 200.0 mg/kg/injection, schedule: Q01DX009 (ip), vehicle: Klucel (hydroxypropylcellulose) (HPC)",86 % of control
CN(C)CC(O)c1ccc(O)c(O)c1 (stereo not given),T/C,[1],115 % of control
same,T/C,[2],115 % of control
same,T/C,[3],103 % of control
CCOC(=O)C(CC1OCCO1)C1=NC(C)(C)CC(C)O1 (stereo not given),T/C,"dose: 100.0 mg/kg/injection, schedule: Q01DX001 (ip), vehicle: acetone",93 % of control
same,T/C,"dose: 200.0 mg/kg/injection, schedule: Q01DX001 (ip), vehicle: acetone",94 % of control
CC(=O)NCN(C)N=O,T/C,[4],91 % of control
same,T/C,[5],91 % of control
same,T/C,[6],91 % of control
COC(=O)CCCCC(=O)OC,T/C,[7],96 % of control
same,T/C,[8],102 % of control
same,T/C,[9],102 % of control
NCCNC(=O)c1ccccc1,T/C,[1],103 % of control
same,T/C,[2],101 % of control
same,T/C,[3],100 % of control
CCCCCCCCCCCCOCC[N+](C/C=C/c1ccccc1)(CCO)CCO,T/C,"dose: 6.25 mg/kg/injection, schedule: Q04DX003 (ip), vehicle: saline sonified",97 % of control
same,T/C,"dose: 12.5 mg/kg/injection, schedule: Q04DX003 (ip), vehicle: saline sonified",103 % of control
same,T/C,"dose: 25.0 mg/kg/injection, schedule: Q04DX003 (ip), vehicle: saline sonified",101 % of control
CCCCCCCCC(C(=O)c1ccccc1)=C(C(F)(F)F)C(F)(F)F,T/C,[10],91 % of control
CC(Br)C(=O)OCc1ccccc1 (stereo not given),T/C,[7],95 % of control
same,T/C,[8],95 % of control
same,T/C,[9],95 % of control
C=NCC#N,T/C,[7],106 % of control
same,T/C,[8],101 % of control
C/C=C1/C=CC2c3[nH]c4ccccc4c3CCN2C1 (stereo not given),T/C,"dose: 20.0 mg/kg/injection, schedule: Q01DX001 (ip), vehicle: saline with Tween-80",93 % of control
same,T/C,"dose: 40.0 mg/kg/injection, schedule: Q01DX001 (ip), vehicle: saline with Tween-80",98 % of control
same,T/C,"dose: 80.0 mg/kg/injection, schedule: Q01DX001 (ip), vehicle: saline with Tween-80",90 % of control
Cc1nc(-c2ccccc2)[nH]c(=O)c1Cc1cc2c(cc1O)OCC2,T/C,[11],100 % of control
same,T/C,[12],101 % of control
same,T/C,"dose: 400.0 mg/kg/injection, schedule: Q01DX001 (ip), vehicle: saline",100 % of control
CCOc1ccc2c(c1)c(CC(=O)O)c(C)n2C,T/C,"dose: 100.0 mg/kg/injection, schedule: Q01DX001 (ip), vehicle: other",95 % of control
same,T/C,"dose: 200.0 mg/kg/injection, schedule: Q01DX001 (ip), vehicle: other",98 % of control
same,T/C,"dose: 400.0 mg/kg/injection, schedule: Q01DX001 (ip), vehicle: other",98 % of control
O=C(O)c1ccccc1C(=O)OC1CCC2CCCCC2C1 (stereo not given),T/C,[10],98 % of control
same,T/C,[7],97 % of control
same,T/C,[13],95 % of control
same,T/C,[8],92 % of control
same,T/C,"dose: 400.0 mg/kg/injection, schedule: Q01DX009 (ip), vehicle: saline with Tween-80",98 % of control
same,T/C,[9],101 % of control
O=C(O)c1c[nH]c2c(Cl)cccc2c1=O,T/C,[11],102 % of control
same,T/C,[12],100 % of control
Cc1ccc(C2CC3c4ccccc4C2C2CCCCN32)cc1 (stereo not given),T/C,"dose: 1.56 mg/kg/injection, schedule: Q01DX009 (ip), vehicle: water",88 % of control and 86 % of control
same,T/C,"dose: 3.13 mg/kg/injection, schedule: Q01DX009 (ip), vehicle: water",86 % of control
same,T/C,"dose: 6.25 mg/kg/injection, schedule: Q01DX009 (ip), vehicle: water",88 % of control
same,T/C,"dose: 12.5 mg/kg/injection, schedule: Q01DX009 (ip), vehicle: water",88 % of control and 93 % of control
same,T/C,"dose: 25.0 mg/kg/injection, schedule: Q01DX009 (ip), vehicle: water",89 % of control and 102 % of control
CC1CC[N-]CC1.CC1CC[N-]CC1.CS(C)=O.[Cl][Rh]([Cl])[Cl],T/C,[7],96 % of control
O=C1CCC(c2ccccc2)=NN1c1ccccc1,T/C,[14],98 % of control
same,T/C,[15],96 % of control
same,T/C,[16],96 % of control
CC(C(N)=O)C1CCC2(C)CCC(=O)C(C)C2C1O (stereo not given),T/C,"dose: 100.0 mg/kg/injection, schedule: Q04DX002 (ip), vehicle: saline with Tween-80",104 % of control
same,T/C,"dose: 200.0 mg/kg/injection, schedule: Q04DX002 (ip), vehicle: saline with Tween-80",120 % of control
same,T/C,"dose: 400.0 mg/kg/injection, schedule: Q04DX002 (ip), vehicle: saline with Tween-80",120 % of control
CN(C)C(=NC#N)N(C)C,T/C,[17],102 % of control
same,T/C,[1],100 % of control
same,T/C,[18],96 % of control
same,T/C,[2],95 % of control
same,T/C,"dose: 400.0 mg/kg/injection, schedule: Q01DX009 (ip), vehicle: saline",96 % of control
same,T/C,[3],97 % of control
O=C(c1ccccc1)C(c1ccccc1)(c1ccccc1)c1ccccc1,T/C,[19],93 % of control
same,T/C,[20],89 % of control
same,T/C,[21],89 % of control
Cc1cnc([Se])[nH]c1=O,T/C,"dose: 25.0 mg/kg/injection, schedule: Q01DX005 (ip), vehicle: water",87 % of control
same,T/C,"dose: 50.0 mg/kg/injection, schedule: Q01DX005 (ip), vehicle: water",90 % of control
Cc1nc(N)nc(N)n1,T/C,[7],100 % of control
same,T/C,[8],100 % of control
same,T/C,[9],97 % of control
COC1OC(C)CC(C)(C)O1 (stereo not given),T/C,[4],89 % of control
same,T/C,[5],96 % of control
same,T/C,[6],100 % of control
ICC(CI)(CI)CI,T/C,[19],100 % of control
same,T/C,[20],93 % of control
same,T/C,[21],100 % of control
N#CCC(=O)O,T/C,"dose: 37.5 mg/kg/injection, schedule: Q04DX003 (ip), vehicle: saline",100 % of control
same,T/C,"dose: 75.0 mg/kg/injection, schedule: Q04DX003 (ip), vehicle: saline",100 % of control
CNC1=C(C)C(=O)C2=C(C1=O)C(COC(N)=O)C1(OC)C3NC3CN21 (stereo not given),T/C,"dose: 1.5 mg/kg/injection, schedule: Q01DX001 (ip), vehicle: water",102 % of control
same,T/C,"dose: 3.0 mg/kg/injection, schedule: Q01DX001 (ip), vehicle: water",100 % of control
same,T/C,"dose: 6.0 mg/kg/injection, schedule: Q01DX001 (ip), vehicle: water",108 % of control
same,T/C,"dose: 12.0 mg/kg/injection, schedule: Q01DX001 (ip), vehicle: water",118 % of control
same,T/C,"dose: 24.0 mg/kg/injection, schedule: Q01DX001 (ip), vehicle: water",124 % of control
Nc1nc(-c2ccccc2)c(CCCNc2ccc(C(=O)NC(CCC(=O)O)C(=O)O)cc2)c(=O)[nH]1 (stereo not given),T/C,[17],94 % of control
same,T/C,[18],96 % of control
COC1=C(OC)C(=O)C(SCCCc2ccccc2)=CC1=O,T/C,"dose: 6.25 mg/kg/injection, schedule: Q01DX009 (ip), vehicle: saline with Tween-80",98 % of control
same,T/C,"dose: 12.5 mg/kg/injection, schedule: Q01DX009 (ip), vehicle: saline with Tween-80",102 % of control
same,T/C,"dose: 25.0 mg/kg/injection, schedule: Q01DX009 (ip), vehicle: saline with Tween-80",93 % of control
COc1cc([C@@H]2c3cc4c(cc3[C@H](OC(C)=O)[C@H]3COC(=O)[C@@H]23)OCO4)cc(OC)c1OC,T/C,"dose: 100.0 mg/kg/injection, schedule: Q01DX009 (ip), vehicle: saline sonified",88 % of control
C/C(=C\Br)CO,T/C,"dose: 50.0 mg/kg/injection, schedule: Q01DX009 (ip), vehicle: acetone",100 % of control
same,T/C,"dose: 100.0 mg/kg/injection, schedule: Q01DX009 (ip), vehicle: acetone",96 % of control
same,T/C,"dose: 200.0 mg/kg/injection, schedule: Q01DX009 (ip), vehicle: acetone",96 % of control
CCOc1ccc(N2C(=O)CSC2=S)cc1,T/C,"dose: 50.0 mg/kg/injection, schedule: Q01DX009 (ip), vehicle: saline with Tween-80",95 % of control
same,T/C,[10],87 % of control
same,T/C,[13],93 % of control
COc1cccc(CCCC(=O)O)c1,T/C,[14],101 % of control
same,T/C,[15],101 % of control
same,T/C,[16],101 % of control
O=c1[nH]c(SCc2ccccc2)nc(Cc2ccccc2)c1CCO,T/C,[7],95 % of control
same,T/C,[8],94 % of control
same,T/C,[9],90 % of control
